Key:
[1] = target: T1, thrombin (Homo sapiens, UniProt P00734); conditions: binding to thrombin; stated for known ligands; cited from earlier work
[2] = target: T1, thrombin; test: competitive-binding capillary electrophoresis screening with fluorescently labeled competitive ligand (FCL); conditions: for FCL/TG complex peak: FIG. 1
Method: Also prepared is 100 nM of a fluorescently labeled, tight-binding competitive ligand, single-stranded (ss) DNA oligonucleotide 5′-fluorescein-GGTTGGTGTGGTTGG-3′ (Kd=3×10^−9 M; hereinafter “FCL”). The mixture of target and candidate ligand (TG/LG) is first injected into the CE instrument for about ten (10) seconds to give a first plug, followed by a 10-second injection of FCL as the second plug.
Voltage of about 20 kV is applied to initiate electrophoresis, and the unbound competitive ligand (FCL) and bound FCL/TG complex peaks are monitored during CE by means of laser-induced fluorescence and a fluorescence detector positioned at a detection point along the capillary.
Here the thrombin target (TG) is incubated, prior to CE, for five minutes with samples containing hirugen and hirulog-1 at different concentrations. Each of these target/sample mixtures is subjected to a CE screening run, as follows. A plug of target/sample mixture is pressure-injected into the CE instrument for 10 seconds to give a first-injected plug. A second injection plug of 100 nM FCL is then injected for 10 seconds, and then voltage of about 20 kV is applied to start electrophoresis. The CE migration of the FCL and FCL/TG complex are monitored by way of laser-induced fluorescence. Again, the FCL has a higher electrophoretic mobility than the TG, so that the unbound FCL peak appears before that of the FCL/TG complex (see FIG. 2).

**Q.** For 5′-fluorescein-GGTTGGTGTGGTTGG-3′ [FCL], which Kd [1] is on record?
**A.** The Kd was 3 nM.

**Q.** What does the source list for “Gly-54-Leu-65 carboxyterminal dodecapeptide of hirudin with sulfated tyrosine [hirugen]”?
**A.** change in competitive ligand's (FCL's) CE profile ([2]; pre-incubation of thrombin with 10,000 nM hirugen, 100 nM FCL, FIG. 2): no difference; Kd [1]: 150 nM

**Q.** Which FCL/TG complex peak ([2]; 50 nM hirulog-1 in sample, equivalent to 50 nM thrombin, 100 nM FCL) does the source give for “D-Phe-Pro-Arg-Pro-(Gly)4-Asn-Gly-Asp-Phe-Glu-Glu-Ile-Pro-Glu-Glu-Tyr-Leu [hirulog-1]” here?
**A.** The FCL/TG complex peak was “complete disappearance”.

**Q.** What about the FCL/TG peak ([2]; hirulog-1 in samples also containing hirugen, 100 nM FCL, FIG. 2) of the same substance?
**A.** Its FCL/TG peak is “decrease”.

**Q.** What about the FCL/TG complex peak ([2]; increasing concentrations of hirulog-1, 50 nM thrombin pre-incubated 5 min, 100 nM FCL, 20 kV) of the same substance?
**A.** The FCL/TG complex peak was “reduced”.

**Q.** And the “molar excess of weak-binding hirugen at which the hirulog-1 signal is detectable” value ([2]; samples containing hirugen and hirulog-1, FIG. 2)?
**A.** The value was “up to 1,000 fold”.

**Q.** What about the Kd [1] of the same substance?
**A.** The Kd was roughly 2 nM.
